Experimental data published in patent US12404289B2 (Gilead Sciences, Inc., priority 2020, dated 2025).
Like-named read-outs stand apart in the source and are kept apart here.

What was measured:
Format in all cases: cell-based
[1] = tested on: Respiratory syncytial virus (RSV) strain A2; experiment: Hep-2 RSV2 384-well assay (EC50-HEP2-384); conditions: human respiratory syncytial virus, HEp-2, 96 h, HEp-2 cells, RSV A2, MOI=4, 4 days, Table 3
[2] = tested on: Respiratory syncytial virus (RSV) strain A2; experiment: RSV antiviral assay (HEp-2, 96 well); conditions: Table 3
SARS-CoV-2 = SARS-CoV-2 antiviral assay (A549-hACE2, Nano luciferase); conditions: A549-hACE2 cells, SARS-CoV2-Nano, MOI 0.025, 48 h, Table 4, read-out: EC50 SARS CoV2
[3] = tested on: Recombinant respiratory syncytial virus expressing the firefly luciferase protein (RSV-Fluc); experiment: microbe, parasite or virus in culture; conditions: Table 4
[4] = read-out: EC50 RSV HEP2 96, HEp-2 cells, RSV A2, MOI=4, 4 days, 96 well
[5] = Severe acute respiratory syndrome coronavirus 2, 48 h
[6] = human respiratory syncytial virus, NHBE, 72 h, read-out: EC50 RSVFluc NHBE 96, NHBE cells, RSV-Fluc, MOI of 0.1, three days, 96 well
[7] = human respiratory syncytial virus, HEp-2, 96 h, read-out: EC50 RSV HEP2 96, HEp-2 cells, RSV A2, MOI=4, 4 days, 96 well
[8] = read-out: EC50 RSVFluc NHBE 96, NHBE cells, RSV-Fluc, MOI of 0.1, three days, 96 well

Row | Structure (SMILES) | EC50 [1] [nM] | EC50 [2, 4] [nM] | EC50 (SARS-CoV-2; [5]) [nM] | EC50 [3, 6] [nM] | EC50 [2, 7] [nM] | EC50 (SARS-CoV-2) [nM] | EC50 [3, 8] [nM]
1 | CCC(CC)COC(=O)[C@H](C)NP(=O)(OC[C@H]1O[C@@](C#N)(c2ccc3c(N)ncnn23)[C@H](O)[C@@H]1O)Oc1ccc2ccccc2c1 (single isomer, unassigned) [Intermediate S3-b] | 68 | 18.8 |  |  |  |  | 
2 | CC(C)COC(=O)[C@H](C)NP(=O)(OC[C@H]1O[C@@](C#N)(c2ccc3c(N)ncnn23)[C@H](OC(=O)C(C)C)[C@@H]1OC(=O)C(C)C)Oc1ccc(C(C)(C)C)cc1 (stereo partly drawn) [Example 122, (2R,3R,4R,5R)-2-(4-aminopyrrolo[2,1-f][1,2,4]triazin-7-yl)-5-((((4-(tert-butyl)phenoxy)(((S)-1-isobutoxy-1-oxopropan-2-yl)amino)phosphoryl)oxy)methyl)-2-cyanotetrahydrofuran-3,4-diyl bis(2-methylpropanoate)] |  |  | 167 | 8.73 | 16.4 |  | 
3 | CC(C)C(=O)O[C@H]1[C@@H](OC(=O)C(C)C)[C@](C#N)(c2ccc3c(N)ncnn23)O[C@@H]1COP(=O)(N[C@@H](C)C(=O)OC1CCC1)Oc1ccc(C(C)(C)C)cc1 (single isomer, unassigned) [Example 50b] |  | 8.52 |  |  |  | 239 | 5.36
4 | COC(C)(C)COC(=O)[C@H](C)NP(=O)(OC[C@H]1O[C@@](C#N)(c2ccc3c(N)ncnn23)[C@H](OC(=O)C(C)C)[C@@H]1OC(=O)C(C)C)Oc1ccc(C(C)(C)C)cc1 (stereo partly drawn) [Example 116, (2R,3R,4R,5R)-2-(4-aminopyrrolo[2,1-f][1,2,4]triazin-7-yl)-5-((((4-(tert-butyl)phenoxy)(((S)-1-(2-methoxy-2-methylpropoxy)-1-oxopropan-2-yl)amino)phosphoryl)oxy)methyl)-2-cyanotetrahydrofuran-3,4-diyl bis(2-methylpropanoate)] |  |  | 56 | 25 | 11.2 |  | 
5 | CCC(C)(C)COC(=O)[C@H](C)NP(=O)(OC[C@H]1O[C@@](C#N)(c2ccc3c(N)ncnn23)[C@H](OC(=O)C(C)C)[C@@H]1OC(=O)C(C)C)Oc1ccc(C(C)(C)C)cc1 (stereo partly drawn) [Example 126, (2R,3R,4R,5R)-2-(4-aminopyrrolo[2,1-f][1,2,4]triazin-7-yl)-5-((((4-(tert-butyl)phenoxy)(((S)-1-(2,2-dimethylbutoxy)-1-oxopropan-2-yl)amino)phosphoryl)oxy)methyl)-2-cyanotetrahydrofuran-3,4-diyl bis(2-methylpropanoate)] | 116 |  | 77.4 |  | 17 |  | 
6 | CC(C)C(=O)O[C@H]1[C@@H](OC(=O)C(C)C)[C@](C#N)(c2ccc3c(N)ncnn23)O[C@@H]1COP(=O)(N[C@@H](C)C(=O)OC1CCC1)Oc1ccc(C(C)(C)C)cc1 (single isomer, unassigned) [Example 50a] |  | 21.3 |  |  |  | 38.8 | 27.5
7 | C[C@H](NP(=O)(OC[C@H]1O[C@@](C#N)(c2ccc3c(N)ncnn23)[C@H](O)[C@@H]1O)Oc1ccc(C(C)(C)C)cc1)C(=O)OC1CC2(CCC2)C1 (stereo partly drawn) [Example 65, spiro[3.3]heptan-2-yl (2S)-2-[[[(2R,3S,4R,5R)-5-(4-aminopyrrolo[2,1-f][1,2,4]triazin-7-yl)-5-cyano-3,4-dihydroxy-tetrahydrofuran-2-yl]methoxy-(4-tert-butylphenoxy)phosphoryl]amino]propanoate] |  |  |  |  | 336 | 265 | 3.24
8 | CC(C)C(=O)O[C@H]1[C@@H](OC(=O)C(C)C)[C@](C#N)(c2ccc3c(N)ncnn23)O[C@@H]1COP(=O)(N[C@@H](C)C(=O)OC1CCC1)Oc1cccc2ccccc12 (single isomer, unassigned) [Example 55a] |  |  | 104 |  | 7.09 |  | 19.9
9 | CC(C)C(=O)O[C@H]1[C@@H](OC(=O)C(C)C)[C@](C#N)(c2ccc3c(N)ncnn23)O[C@@H]1COP(=O)(N[C@@H](C)C(=O)OC1CCC1)Oc1cccc2ccccc12 (single isomer, unassigned) [Example 55b] |  | 7.44 |  |  |  | 108 | 6.12
10 | CC(C)C(=O)O[C@H]1[C@@H](OC(=O)C(C)C)[C@](C#N)(c2ccc3c(N)ncnn23)O[C@@H]1COP(=O)(N[C@@H](C)C(=O)OC1CCC1)Oc1ccc(C2CC2)cc1 (some centres unmarked) [Example 52a] |  |  | 64.5 | 20.8 | 20.5 |  | 
11 | CCC(CC)COC(=O)[C@H](C)NP(=O)(OC[C@H]1O[C@@](C#N)(c2ccc3c(N)ncnn23)[C@H](O)[C@@H]1O)Oc1ccc2ccccc2c1 (stereo partly drawn) [Intermediate S3, 2-ethylbutyl ((((2R,3S,4R,5R)-5-(4-aminopyrrolo[2,1-f][1,2,4]triazin-7-yl)-5-cyano-3,4-dihydroxytetrahydrofuran-2-yl)methoxy)(naphthalen-2-yloxy)phosphoryl)-L-alaninate] |  |  | 113 | 5.51 |  |  | 
12 | CCOC(=O)[C@H](C)NP(=O)(OC[C@H]1O[C@@](C#N)(c2ccc3c(N)ncnn23)[C@H](OC(=O)C(C)C)[C@@H]1OC(=O)C(C)C)Oc1cccc2ccccc12 (stereo partly drawn) [Example 67, [(2R,3R,4R,5R)-5-(4-aminopyrrolo[2,1-f][1,2,4]triazin-7-yl)-5-cyano-2-[[[[(1S)-2-ethoxy-1-methyl-2-oxo-ethyl]amino]-(1-naphthyloxy)phosphoryl]oxymethyl]-4-(2-methylpropanoyloxy)tetrahydrofuran-3-yl] 2-methylpropanoate] |  |  | 27.2 | 8.72 | 18 |  | 
13 | CC(=O)O[C@H]1[C@@H](OC(C)=O)[C@](C#N)(c2ccc3c(N)ncnn23)O[C@@H]1COP(=O)(N[C@@H](C)C(=O)OC1CC2(CCCC2)C1)Oc1ccc(C(C)(C)C)cc1 (stereo partly drawn) [Example 98a, (2R,3R,4R,5R)-2-(4-aminopyrrolo[2,1-f][1,2,4]triazin-7-yl)-5-((((4-(tert-butyl)phenoxy)(((S)-1-oxo-1-(spiro[3.4]octan-2-yloxy)propan-2-yl)amino)phosphoryl)oxy)methyl)-2-cyanotetrahydrofuran-3,4-diyl Diacetate] | 62.1 |  | 176 |  |  |  | 
14 | CC(=O)O[C@H]1[C@@H](OC(C)=O)[C@](C#N)(c2ccc3c(N)ncnn23)O[C@@H]1COP(=O)(N[C@@H](C)C(=O)OC1CC2(CCC2)C1)Oc1ccc(C(C)(C)C)cc1 (stereo partly drawn) [Example 80, Spiro[3.3]heptan-2-yl (2S)-2-[[(4-tert-butylphenoxy)-[[(2R,3R,4R,5R)-3,4-diacetoxy-5-(4-aminopyrrolo[2,1-f][1,2,4]triazin-7-yl)-5-cyano-tetrahydrofuran-2-yl]methoxy]phosphoryl]amino]propanoate] |  |  |  |  | 16.9 | 310 | 16.5
15 | CCOC(=O)[C@H](C)NP(=O)(OC[C@H]1O[C@@](C#N)(c2ccc3c(N)ncnn23)[C@H](OC(=O)C(C)C)[C@@H]1OC(=O)C(C)C)Oc1ccc(C23CC(C2)C3)cc1 (stereo partly drawn) [Example 43, (2R,3R,4R,5R)-2-(4-aminopyrrolo[2,1-f][1,2,4]triazin-7-yl)-5-((((4-(bicyclo[1.1.1]pentan-1-yl)phenoxy)(((S)-1-ethoxy-1-oxopropan-2-yl)amino)phosphoryl)oxy)methyl)-2-cyanotetrahydrofuran-3,4-diyl bis(2-methylpropanoate)] | 62.8 |  | 168 |  |  |  | 
16 | CCC(C)(C)CCOC(=O)[C@H](C)NP(=O)(OC[C@H]1O[C@@](C#N)(c2ccc3c(N)ncnn23)[C@H](O)[C@@H]1O)Oc1ccc(C(C)(C)C)cc1 (stereo partly drawn) [Example 154, 3,3-dimethylpentyl ((((2R,3S,4R,5R)-5-(4-aminopyrrolo[2,1-f][1,2,4]triazin-7-yl)-5-cyano-3,4-dihydroxytetrahydrofuran-2-yl)methoxy)(4-(tert-butyl)phenoxy)phosphoryl)-L-alaninate] | 105 |  | 330 |  |  |  | 
17 | C[C@H](NP(=O)(OC[C@H]1O[C@@](C#N)(c2ccc3c(N)ncnn23)[C@H](O)[C@@H]1O)Oc1ccc(C(C)(C)C)cc1)C(=O)OCCC(C)(C)C (stereo partly drawn) [Example 61, 3,3-dimethylbutyl (2S)-2-[[[(2R,3S,4R,5R)-5-(4-aminopyrrolo[2,1-f][1,2,4]triazin-7-yl)-5-cyano-3,4-dihydroxy-tetrahydrofuran-2-yl]methoxy-(4-tert-butylphenoxy)phosphoryl]amino]propanoate] | 72.4 |  |  |  | 36.7 |  | 
18 | CC(C)C(=O)O[C@H]1[C@@H](OC(=O)C(C)C)[C@](C#N)(c2ccc3c(N)ncnn23)O[C@@H]1COP(=O)(N[C@@H](C)C(=O)OC1CCOCC1)Oc1ccc(C(C)(C)C)cc1 (stereo partly drawn) [Example 90, [(2R,3R,4R,5R)-5-(4-aminopyrrolo[2,1-f][1,2,4]triazin-7-yl)-2-[[(4-tert-butylphenoxy)-[[(1S)-1-methyl-2-oxo-2-tetrahydropyran-4-yloxy-ethyl]amino]phosphoryl]oxymethyl]-5-cyano-4-(2-methylpropanoyloxy)tetrahydrofuran-3-yl] 2-methylpropanoate] | 124 |  |  |  | 20.4 |  | 
19 | CC(C)C(=O)O[C@H]1[C@@H](OC(=O)C(C)C)[C@](C#N)(c2ccc3c(N)ncnn23)O[C@@H]1COP(=O)(N[C@@H](C)C(=O)OCC1CCC1)Oc1ccccc1 (stereo partly drawn) [Example 117, (2R,3R,4R,5R)-2-(4-aminopyrrolo[2,1-f][1,2,4]triazin-7-yl)-2-cyano-5-((((((S)-1-(cyclobutylmethoxy)-1-oxopropan-2-yl)amino)(phenoxy)phosphoryl)oxy)methyl)tetrahydrofuran-3,4-diyl bis(2-methylpropanoate)] |  |  | 192 | 22.1 | 11 |  | 
